In PMC11995216, “End-to-End Backbone Cyclization Enhances Passive Permeability of bRo5 Oligomeric Depsipeptides with Nonlinear Size Dependence” (ACS Medicinal Chemistry Letters, 2025):
Several values for one entry are separate records, joined by “and”; a condition that tells them apart may be missing. Identical values can stand only once. Like-named read-outs stand apart in the source and are kept apart here. Starred links: 1 amine or outer side, 2 acyl side, 3 side chain; linkers in the order of their positions; H or OH if unused. Non-standard residues stand in square brackets, D forms with d. Residues, ends and D or L forms follow the SMILES beside them. *: point of attachment. X2 = CCCCC[C@H](O*)C(=O)OCc1ccccc1; X1 = CCCCC[C@H](O[*:1])C(=O)[*:2]; Ahp(2) = CCCCC[C@H](N)C(=O)O; dNMeA = CN[C@H](C)C(=O)O; Boc = CC(C)(C)OC(=O)*

Tests used:
[1] = calculated using Supplement Equation 1, UV detection
[2] = system: PAMPA; conditions: UV detection
[3] = UV detection
[4] = system: PAMPA; conditions: UV detection, initial concentration 500 uM
[5] = PAMPA, 500 uM
[6] = in vitro; conditions: PAMPA, Papp
[7] = initial concentration 500 uM, UV detection
[8] = Papp (x 10^-6 cm/s) / experiment 1
[9] = Papp (x 10^-6 cm/s) / experiment 2
[10] = Papp (x 10^-6 cm/s) / experiment 3
[11] = Papp (x 10^-6 cm/s) / experiment 4
[12] = Papp (x 10^-6 cm/s) / experiment 5
[13] = Papp (x 10^-6 cm/s) / experiment 6
[14] = Papp (x 10^-6 cm/s) / experiment 7
[15] = Papp (x 10^-6 cm/s) / experiment 8
[16] = Papp (x 10^-6 cm/s) / experiment 9
[17] = Papp (x 10^-6 cm/s) / experiment 10
[18] = Acceptor Concentration (uM) / experiment 1
[19] = Acceptor Concentration (uM) / experiment 2
[20] = Acceptor Concentration (uM) / experiment 3
[21] = Acceptor Concentration (uM) / experiment 4
[22] = Acceptor Concentration (uM) / experiment 5
[23] = Acceptor Concentration (uM) / experiment 6
[24] = Acceptor Concentration (uM) / experiment 7
[25] = Acceptor Concentration (uM) / experiment 8
[26] = Acceptor Concentration (uM) / experiment 9
[27] = Acceptor Concentration (uM) / experiment 10
[28] = Well 1 / [donor], Well 1, standard curve
[29] = Well 2 / [donor], Well 2, standard curve
[30] = Well 3 / [donor], Well 3, standard curve
[31] = Well 4 / [donor], Well 4, standard curve
[32] = Well 5 / [donor], Well 5, standard curve

CCCCC[C@H](NC(=O)[C@@H](C)N(C)C(=O)OC(C)(C)C)C(=O)N(C)[C@H](C)C(=O)O[C@@H](CCCCC)C(=O)N(C)[C@H](C)C(=O)O[C@@H](CCCCC)C(=O)N(C)[C@H](C)C(=O)O[C@@H](CCCCC)C(=O)OCc1ccccc1 [Compound L2.1] (Boc-[dNMeA][Ahp(2)][dNMeA][X1][dNMeA][X1][dNMeA]-X2)
%T ([1]; Well 1 / %T, Well 1): 0.47% and 0.5% | %T ([1]; Well 2 / %T, Well 2): 0.47% and 0.52% | %T ([1]; Well 3 / %T, Well 3): 0.49% | %T ([1]; Well 4 / %T, Well 4): 0.48% and 0.5% | %T ([1]; Well 5 / %T, Well 5): 0.49% and 0.5% | Papp ([2]; Papp (x 10^-6 cm/s) / [row 1]): 3.57 ×10⁻⁶ cm/s | Papp ([2]; Papp (x 10^-6 cm/s) / [row 2]): 4.24 ×10⁻⁶ cm/s | Papp ([2]; Papp (x 10^-6 cm/s) / [row 3]): 3.98 ×10⁻⁶ cm/s | Papp ([2]; Papp (x 10^-6 cm/s) / [row 4]): 4.55 ×10⁻⁶ cm/s | Papp ([2]; Papp (x 10^-6 cm/s) / [row 5]): 4.01 ×10⁻⁶ cm/s | Papp ([2]; Papp (x 10^-6 cm/s) / [row 6]): 3.22 ×10⁻⁶ cm/s | Papp ([2]; Papp (x 10^-6 cm/s) / [row 7]): 3.32 ×10⁻⁶ cm/s | Papp ([2]; Papp (x 10^-6 cm/s) / [row 8]): 4.45 ×10⁻⁶ cm/s | Papp ([2]; Papp (x 10^-6 cm/s) / [row 9]): 4.33 ×10⁻⁶ cm/s | Papp ([2]; Papp (x 10^-6 cm/s) / [row 10]): 4.04 ×10⁻⁶ cm/s | % recovery ([3]; Well 1 / %R, Well 1): 97% and 99% | % recovery ([3]; Well 2 / %R, Well 2): 94% | % recovery ([3]; Well 3 / %R, Well 3): 96% | % recovery ([3]; Well 4 / %R, Well 4): 92% and 84% | % recovery ([3]; Well 5 / %R, Well 5): 98% and 88% | Acceptor Concentration ([4]; Acceptor Concentration (uM) / [row 1]): 83.2 µM | Acceptor Concentration ([4]; Acceptor Concentration (uM) / [row 2]): 94.6 µM | Acceptor Concentration ([4]; Acceptor Concentration (uM) / [row 3]): 90.8 µM | Acceptor Concentration ([4]; Acceptor Concentration (uM) / [row 4]): 98.2 µM | Acceptor Concentration ([4]; Acceptor Concentration (uM) / [row 5]): 93.2 µM | Acceptor Concentration ([4]; Acceptor Concentration (uM) / [row 6]): 76.9 µM | Acceptor Concentration ([4]; Acceptor Concentration (uM) / [row 7]): 74.6 µM | Acceptor Concentration ([4]; Acceptor Concentration (uM) / [row 8]): 97.5 µM | Acceptor Concentration ([4]; Acceptor Concentration (uM) / [row 9]): 85.3 µM | Acceptor Concentration ([4]; Acceptor Concentration (uM) / [row 10]): 83.9 µM | LogPapp [5]: -5.40 ± 0.05 | Δ % diffusion [5]: ↑19% | Papp at 500 uM [6]: 3.97 ± 0.46 ×10⁻⁶ cm/s | donor concentration after incubation ([7]; Well 1 / [donor], Well 1): 402 µM and 418 µM | donor concentration after incubation ([7]; Well 2 / [donor], Well 2): 377 µM and 393 µM | donor concentration after incubation ([7]; Well 3 / [donor], Well 3): 388 µM and 368 µM | donor concentration after incubation ([7]; Well 4 / [donor], Well 4): 363 µM and 335 µM | donor concentration after incubation ([7]; Well 5 / [donor], Well 5): 395 µM and 356 µM

CCCCC[C@H](OC(=O)[C@@H](C)N(C)C(=O)OC(C)(C)C)C(=O)OCc1ccccc1 [Compound L1.1]
%T ([1]; Well 1 / %T, Well 1): 0.56% and 0.55% | %T ([1]; Well 2 / %T, Well 2): 0.51% | %T ([1]; Well 3 / %T, Well 3): 0.44% and 0.55% | %T ([1]; Well 4 / %T, Well 4): 0.52% and 0.62% | %T ([1]; Well 5 / %T, Well 5): 0.49% and 0.52% | Papp [2, 8]: 4.67 ×10⁻⁶ cm/s | Papp [2, 9]: 4.06 ×10⁻⁶ cm/s | Papp [2, 10]: 3.27 ×10⁻⁶ cm/s | Papp [2, 11]: 4.23 ×10⁻⁶ cm/s | Papp [2, 12]: 3.87 ×10⁻⁶ cm/s | Papp [2, 13]: 4.51 ×10⁻⁶ cm/s | Papp [2, 14]: 4.1 ×10⁻⁶ cm/s | Papp [2, 15]: 4.51 ×10⁻⁶ cm/s | Papp [2, 16]: 5.45 ×10⁻⁶ cm/s | Papp [2, 17]: 4.19 ×10⁻⁶ cm/s | % recovery ([3]; Well 1 / %R, Well 1): 87% and 98% | % recovery ([3]; Well 2 / %R, Well 2): 96% and 95% | % recovery ([3]; Well 3 / %R, Well 3): 97% and 86% | % recovery ([3]; Well 4 / %R, Well 4): 91% and 84% | % recovery ([3]; Well 5 / %R, Well 5): 89% and 95% | Acceptor Concentration [4, 18]: 97.9 µM | Acceptor Concentration [4, 19]: 95.4 µM | Acceptor Concentration [4, 20]: 79.7 µM | Acceptor Concentration [4, 21]: 94.3 µM | Acceptor Concentration [4, 22]: 84.7 µM | Acceptor Concentration [4, 23]: 107 µM | Acceptor Concentration [4, 24]: 95.8 µM | Acceptor Concentration [4, 25]: 92.9 µM | Acceptor Concentration [4, 26]: 107 µM | Acceptor Concentration [4, 27]: 97.4 µM | Acceptor Concentration, Ave [5]: 95.2 µM | Δ % diffusion [5]: ↑22% | Papp at 500 uM [6]: 4.3 ± 0.6 ×10⁻⁶ cm/s | donor concentration after incubation [7, 28]: 339 µM and 383 µM | donor concentration after incubation [7, 29]: 384 µM and 381 µM | donor concentration after incubation [7, 30]: 406 µM and 335 µM | donor concentration after incubation [7, 31]: 363 µM and 315 µM | donor concentration after incubation [7, 32]: 360 µM and 379 µM

CCCCC[C@H](OC(=O)[C@@H](C)N(C)C(=O)[C@H](CCCCC)OC(=O)[C@@H](C)N(C)C(=O)[C@H](CCCCC)OC(=O)[C@@H](C)N(C)C(=O)OC(C)(C)C)C(=O)OCc1ccccc1 [Compound L1.3]
%T ([1]; Well 1 / %T, Well 1): 0.44% and 0.49% | %T ([1]; Well 2 / %T, Well 2): 0.47% and 0.46% | %T ([1]; Well 3 / %T, Well 3): 0.46% | %T ([1]; Well 4 / %T, Well 4): 0.49% and 0.46% | %T ([1]; Well 5 / %T, Well 5): 0.47% and 0.43% | Papp [2, 8]: 3.86 ×10⁻⁶ cm/s | Papp [2, 9]: 3.52 ×10⁻⁶ cm/s | Papp [2, 10]: 3.52 ×10⁻⁶ cm/s | Papp [2, 11]: 3.49 ×10⁻⁶ cm/s | Papp [2, 12]: 3.18 ×10⁻⁶ cm/s | Papp [2, 13]: 3.34 ×10⁻⁶ cm/s | Papp [2, 14]: 3.62 ×10⁻⁶ cm/s | Papp [2, 15]: 3.46 ×10⁻⁶ cm/s | Papp [2, 16]: 3.83 ×10⁻⁶ cm/s | Papp [2, 17]: 3.57 ×10⁻⁶ cm/s | % recovery ([3]; Well 1 / %R, Well 1): 86% and 89% | % recovery ([3]; Well 2 / %R, Well 2): 93% and 92% | % recovery ([3]; Well 3 / %R, Well 3): 91% and 85% | % recovery ([3]; Well 4 / %R, Well 4): 86% and 84% | % recovery ([3]; Well 5 / %R, Well 5): 85% and 86% | Acceptor Concentration [4, 18]: 84.1 µM | Acceptor Concentration [4, 19]: 80.7 µM | Acceptor Concentration [4, 20]: 74.5 µM | Acceptor Concentration [4, 21]: 72.5 µM | Acceptor Concentration [4, 22]: 68.1 µM | Acceptor Concentration [4, 23]: 71.8 µM | Acceptor Concentration [4, 24]: 84 µM | Acceptor Concentration [4, 25]: 79 µM | Acceptor Concentration [4, 26]: 81.4 µM | Acceptor Concentration [4, 27]: 75.6 µM | LogPapp [5]: -5.45 ± 0.02 | Δ % diffusion [5]: ↑3% | Papp at 500 uM [6]: 3.54 ± 0.2 ×10⁻⁶ cm/s | donor concentration after incubation [7, 28]: 358 µM | donor concentration after incubation [7, 29]: 382 µM and 379 µM | donor concentration after incubation [7, 30]: 378 µM and 351 µM | donor concentration after incubation [7, 31]: 350 µM and 346 µM | donor concentration after incubation [7, 32]: 351 µM and 360 µM
